Data: ChEMBL document CHEMBL1155881, “Structure-based development of novel adenylyl cyclase inhibitors” (J Med Chem, 2008)
Calls of active or inactive are those of the source. The rule behind the calls is not given here.

Columns and labels:
[1] = biological target: T1, Adenylate cyclase (Arthrospira platensis, UniProt O32393); assay: Inhibition of Spirulina platensis adenylyl cyclase assessed as cAMP level by cAMP immunogenic assay; design: species or system Limnospira platensis
T1 sequence (O32393 whole entry): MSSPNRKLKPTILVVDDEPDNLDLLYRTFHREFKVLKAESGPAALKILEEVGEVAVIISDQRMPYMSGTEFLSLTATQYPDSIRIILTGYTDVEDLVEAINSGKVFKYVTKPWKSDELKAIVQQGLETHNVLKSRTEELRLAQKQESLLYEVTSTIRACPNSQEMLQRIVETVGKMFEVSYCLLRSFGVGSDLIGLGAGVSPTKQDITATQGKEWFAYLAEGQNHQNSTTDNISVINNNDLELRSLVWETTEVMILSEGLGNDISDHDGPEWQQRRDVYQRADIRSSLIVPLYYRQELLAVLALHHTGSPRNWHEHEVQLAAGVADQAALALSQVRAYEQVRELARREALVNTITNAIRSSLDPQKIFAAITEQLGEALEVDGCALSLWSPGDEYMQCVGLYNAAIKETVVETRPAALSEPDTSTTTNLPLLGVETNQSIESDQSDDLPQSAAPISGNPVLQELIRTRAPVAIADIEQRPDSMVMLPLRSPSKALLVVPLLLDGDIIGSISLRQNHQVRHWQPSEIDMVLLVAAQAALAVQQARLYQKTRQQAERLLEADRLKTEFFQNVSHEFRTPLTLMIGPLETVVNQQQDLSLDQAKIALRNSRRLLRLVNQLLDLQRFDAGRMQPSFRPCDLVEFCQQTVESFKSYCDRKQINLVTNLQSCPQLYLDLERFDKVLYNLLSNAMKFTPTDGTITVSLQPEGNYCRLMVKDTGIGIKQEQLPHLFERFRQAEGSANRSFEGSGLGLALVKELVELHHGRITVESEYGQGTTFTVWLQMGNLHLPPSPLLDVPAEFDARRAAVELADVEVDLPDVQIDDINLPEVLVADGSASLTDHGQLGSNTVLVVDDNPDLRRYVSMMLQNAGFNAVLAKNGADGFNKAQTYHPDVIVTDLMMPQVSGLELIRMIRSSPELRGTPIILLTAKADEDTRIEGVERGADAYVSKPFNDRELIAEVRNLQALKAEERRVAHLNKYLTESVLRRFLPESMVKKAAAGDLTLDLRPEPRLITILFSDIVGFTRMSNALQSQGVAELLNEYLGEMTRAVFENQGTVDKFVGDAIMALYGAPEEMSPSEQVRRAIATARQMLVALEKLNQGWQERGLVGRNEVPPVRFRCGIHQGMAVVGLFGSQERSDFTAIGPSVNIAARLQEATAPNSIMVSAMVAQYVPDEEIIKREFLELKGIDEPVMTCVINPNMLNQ

[2] = biological target: Adenylate cyclase (Homo sapiens) (UniProt Q8NFM4+O60503+Q08828+P40145+O60266+O95622+O43306+Q08462+P51828); assay: Inhibition of forskolin-stimulated human transmembrane adenylyl cyclase activity in HEK293 cells at 100 uM; assay type: cell-based
[3] = biological target: Adenylate cyclase type 2 (Homo sapiens) (UniProt Q08462); assay: Inhibition of basal activity of adenylyl cyclase 2 expressed in HEK293 cells at 100 uM; assay type: cell-based
[4] = biological target: Adenylate cyclase type 2 (Homo sapiens) (UniProt Q08462); assay: Stimulation of basal activity of adenylyl cyclase 2 expressed in HEK293 cells at 100 uM in presence of forskolin; assay type: cell-based
[5] = biological target: Adenylate cyclase type 5 (Homo sapiens) (UniProt O95622); assay: Inhibition of forskolin-stimulated adenylyl cyclase 5 activity expressed in HEK293 cells at 100 uM; assay type: cell-based
[6] = biological target: Adenylate cyclase type 1 (Homo sapiens) (UniProt Q08828); assay: Inhibition of forskolin-stimulated adenylyl cyclase 1 activity expressed in HEK293 cells at 100 uM; assay type: cell-based
[7] = biological target: Adenylate cyclase type 10 (Homo sapiens, UniProt Q96PN6); assay: Inhibition of human recombinant soluble adenylyl cyclase
[8] = biological target: T2, Adenylate cyclase type 9 (Homo sapiens) (UniProt O60503); assay: Inhibition of basal activity of adenylyl cyclase 9 expressed in HEK293 cells at 100 uM; assay type: cell-based
T2 sequence (whole entry): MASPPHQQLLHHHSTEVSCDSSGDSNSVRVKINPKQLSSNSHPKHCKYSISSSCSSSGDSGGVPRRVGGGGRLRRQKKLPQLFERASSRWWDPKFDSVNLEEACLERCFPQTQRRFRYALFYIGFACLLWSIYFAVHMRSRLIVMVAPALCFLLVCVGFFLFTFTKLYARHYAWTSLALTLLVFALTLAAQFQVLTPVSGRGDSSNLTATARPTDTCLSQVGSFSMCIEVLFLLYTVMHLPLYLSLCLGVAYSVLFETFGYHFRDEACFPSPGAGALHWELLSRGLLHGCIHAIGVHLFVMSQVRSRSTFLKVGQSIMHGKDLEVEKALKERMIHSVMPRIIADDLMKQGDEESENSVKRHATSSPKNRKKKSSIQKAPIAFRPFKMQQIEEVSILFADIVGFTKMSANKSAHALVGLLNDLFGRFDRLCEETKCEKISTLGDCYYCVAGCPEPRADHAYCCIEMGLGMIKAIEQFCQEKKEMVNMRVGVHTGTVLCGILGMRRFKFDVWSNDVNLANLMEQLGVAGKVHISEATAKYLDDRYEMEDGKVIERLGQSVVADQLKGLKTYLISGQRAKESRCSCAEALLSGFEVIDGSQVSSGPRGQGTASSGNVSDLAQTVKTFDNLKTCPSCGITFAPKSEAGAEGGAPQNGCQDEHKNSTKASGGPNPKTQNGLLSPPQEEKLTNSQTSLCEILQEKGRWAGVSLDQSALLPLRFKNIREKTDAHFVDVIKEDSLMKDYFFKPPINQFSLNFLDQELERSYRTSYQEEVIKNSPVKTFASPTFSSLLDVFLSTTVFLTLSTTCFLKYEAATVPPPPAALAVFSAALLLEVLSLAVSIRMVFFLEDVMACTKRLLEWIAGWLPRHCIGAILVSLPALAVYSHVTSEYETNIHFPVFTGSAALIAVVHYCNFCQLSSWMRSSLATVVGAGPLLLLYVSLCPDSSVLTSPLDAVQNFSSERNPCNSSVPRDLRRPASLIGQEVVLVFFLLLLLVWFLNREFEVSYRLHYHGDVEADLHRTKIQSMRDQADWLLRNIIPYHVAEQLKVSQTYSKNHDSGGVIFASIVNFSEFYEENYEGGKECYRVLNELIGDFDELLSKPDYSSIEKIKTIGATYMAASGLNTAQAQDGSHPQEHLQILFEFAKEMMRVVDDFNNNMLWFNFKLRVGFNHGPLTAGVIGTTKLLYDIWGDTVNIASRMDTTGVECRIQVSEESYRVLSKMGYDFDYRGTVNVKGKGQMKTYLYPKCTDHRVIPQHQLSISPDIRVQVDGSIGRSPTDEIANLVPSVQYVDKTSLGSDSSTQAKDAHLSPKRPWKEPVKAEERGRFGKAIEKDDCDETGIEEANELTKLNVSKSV

Chain of Adenylate cyclase type 10 (Q96PN6 whole entry): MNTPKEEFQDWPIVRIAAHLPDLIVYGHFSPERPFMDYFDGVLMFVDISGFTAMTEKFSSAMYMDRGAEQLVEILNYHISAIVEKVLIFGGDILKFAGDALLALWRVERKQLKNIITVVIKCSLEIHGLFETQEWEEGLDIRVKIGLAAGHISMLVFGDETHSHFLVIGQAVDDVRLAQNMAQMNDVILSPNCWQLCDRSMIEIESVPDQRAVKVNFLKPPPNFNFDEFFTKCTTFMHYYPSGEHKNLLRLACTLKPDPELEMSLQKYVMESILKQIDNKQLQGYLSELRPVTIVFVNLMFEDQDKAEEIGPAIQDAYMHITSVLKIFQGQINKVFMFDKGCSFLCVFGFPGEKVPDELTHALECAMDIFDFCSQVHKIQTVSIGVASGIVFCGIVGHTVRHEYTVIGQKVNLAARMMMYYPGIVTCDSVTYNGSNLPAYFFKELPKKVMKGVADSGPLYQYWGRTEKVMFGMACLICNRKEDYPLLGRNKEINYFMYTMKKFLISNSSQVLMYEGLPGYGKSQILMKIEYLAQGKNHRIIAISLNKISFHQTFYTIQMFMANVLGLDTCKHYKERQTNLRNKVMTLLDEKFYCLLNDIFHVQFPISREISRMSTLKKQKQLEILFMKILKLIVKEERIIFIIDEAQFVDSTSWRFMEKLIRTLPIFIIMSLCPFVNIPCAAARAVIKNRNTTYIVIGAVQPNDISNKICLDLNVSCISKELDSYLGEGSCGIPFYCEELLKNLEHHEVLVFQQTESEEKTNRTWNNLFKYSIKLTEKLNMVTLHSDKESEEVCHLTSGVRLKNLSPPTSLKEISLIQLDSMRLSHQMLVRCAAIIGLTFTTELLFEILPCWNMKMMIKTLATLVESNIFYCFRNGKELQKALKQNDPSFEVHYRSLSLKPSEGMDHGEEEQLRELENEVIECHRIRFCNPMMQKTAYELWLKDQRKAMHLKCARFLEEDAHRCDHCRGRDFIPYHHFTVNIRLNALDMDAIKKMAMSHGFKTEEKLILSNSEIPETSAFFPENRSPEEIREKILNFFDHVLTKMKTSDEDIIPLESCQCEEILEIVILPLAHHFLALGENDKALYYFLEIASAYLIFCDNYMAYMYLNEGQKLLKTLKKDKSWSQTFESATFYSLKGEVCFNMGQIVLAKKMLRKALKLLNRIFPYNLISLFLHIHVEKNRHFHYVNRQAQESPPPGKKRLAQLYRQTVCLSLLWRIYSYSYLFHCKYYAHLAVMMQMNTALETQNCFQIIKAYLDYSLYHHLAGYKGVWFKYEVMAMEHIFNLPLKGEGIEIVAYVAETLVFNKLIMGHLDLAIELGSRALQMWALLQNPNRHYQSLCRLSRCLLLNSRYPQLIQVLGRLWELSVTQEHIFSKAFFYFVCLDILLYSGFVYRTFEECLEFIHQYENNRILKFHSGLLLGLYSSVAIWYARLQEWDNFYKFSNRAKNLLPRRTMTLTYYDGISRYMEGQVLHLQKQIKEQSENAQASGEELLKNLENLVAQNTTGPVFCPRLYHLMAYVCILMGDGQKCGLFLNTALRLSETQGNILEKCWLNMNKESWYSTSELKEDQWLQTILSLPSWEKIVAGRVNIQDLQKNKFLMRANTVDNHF
Chain of Adenylate cyclase type 2 (Homo sapiens) (Q08462 whole entry): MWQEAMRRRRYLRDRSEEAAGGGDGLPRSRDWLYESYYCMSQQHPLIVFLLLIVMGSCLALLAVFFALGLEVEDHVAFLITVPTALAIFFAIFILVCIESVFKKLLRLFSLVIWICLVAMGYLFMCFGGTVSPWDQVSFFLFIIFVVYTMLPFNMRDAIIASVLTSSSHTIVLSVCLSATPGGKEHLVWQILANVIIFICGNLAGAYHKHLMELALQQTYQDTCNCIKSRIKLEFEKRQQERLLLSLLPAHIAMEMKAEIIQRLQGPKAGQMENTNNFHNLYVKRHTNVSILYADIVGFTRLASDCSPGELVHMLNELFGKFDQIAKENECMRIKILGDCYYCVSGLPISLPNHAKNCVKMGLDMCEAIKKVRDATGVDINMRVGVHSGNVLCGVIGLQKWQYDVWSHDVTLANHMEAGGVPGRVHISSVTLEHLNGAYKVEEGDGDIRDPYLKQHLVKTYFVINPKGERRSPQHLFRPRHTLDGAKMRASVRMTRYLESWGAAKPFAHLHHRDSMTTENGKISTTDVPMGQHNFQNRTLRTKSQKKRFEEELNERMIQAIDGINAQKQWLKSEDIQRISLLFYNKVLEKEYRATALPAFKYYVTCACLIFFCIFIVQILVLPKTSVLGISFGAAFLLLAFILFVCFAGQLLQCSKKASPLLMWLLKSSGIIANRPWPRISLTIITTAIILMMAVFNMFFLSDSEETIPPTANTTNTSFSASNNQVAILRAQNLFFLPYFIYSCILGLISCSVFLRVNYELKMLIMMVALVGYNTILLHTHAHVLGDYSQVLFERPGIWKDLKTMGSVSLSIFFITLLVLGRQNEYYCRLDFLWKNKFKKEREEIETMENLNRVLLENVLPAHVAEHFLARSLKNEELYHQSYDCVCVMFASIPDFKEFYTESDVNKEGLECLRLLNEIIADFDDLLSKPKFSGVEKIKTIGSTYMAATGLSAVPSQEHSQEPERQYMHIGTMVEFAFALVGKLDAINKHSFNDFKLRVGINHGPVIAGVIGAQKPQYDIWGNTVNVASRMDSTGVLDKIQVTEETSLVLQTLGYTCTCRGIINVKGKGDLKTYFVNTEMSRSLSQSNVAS
Chain of Adenylate cyclase type 5 (Homo sapiens) (O95622 whole entry, looked up): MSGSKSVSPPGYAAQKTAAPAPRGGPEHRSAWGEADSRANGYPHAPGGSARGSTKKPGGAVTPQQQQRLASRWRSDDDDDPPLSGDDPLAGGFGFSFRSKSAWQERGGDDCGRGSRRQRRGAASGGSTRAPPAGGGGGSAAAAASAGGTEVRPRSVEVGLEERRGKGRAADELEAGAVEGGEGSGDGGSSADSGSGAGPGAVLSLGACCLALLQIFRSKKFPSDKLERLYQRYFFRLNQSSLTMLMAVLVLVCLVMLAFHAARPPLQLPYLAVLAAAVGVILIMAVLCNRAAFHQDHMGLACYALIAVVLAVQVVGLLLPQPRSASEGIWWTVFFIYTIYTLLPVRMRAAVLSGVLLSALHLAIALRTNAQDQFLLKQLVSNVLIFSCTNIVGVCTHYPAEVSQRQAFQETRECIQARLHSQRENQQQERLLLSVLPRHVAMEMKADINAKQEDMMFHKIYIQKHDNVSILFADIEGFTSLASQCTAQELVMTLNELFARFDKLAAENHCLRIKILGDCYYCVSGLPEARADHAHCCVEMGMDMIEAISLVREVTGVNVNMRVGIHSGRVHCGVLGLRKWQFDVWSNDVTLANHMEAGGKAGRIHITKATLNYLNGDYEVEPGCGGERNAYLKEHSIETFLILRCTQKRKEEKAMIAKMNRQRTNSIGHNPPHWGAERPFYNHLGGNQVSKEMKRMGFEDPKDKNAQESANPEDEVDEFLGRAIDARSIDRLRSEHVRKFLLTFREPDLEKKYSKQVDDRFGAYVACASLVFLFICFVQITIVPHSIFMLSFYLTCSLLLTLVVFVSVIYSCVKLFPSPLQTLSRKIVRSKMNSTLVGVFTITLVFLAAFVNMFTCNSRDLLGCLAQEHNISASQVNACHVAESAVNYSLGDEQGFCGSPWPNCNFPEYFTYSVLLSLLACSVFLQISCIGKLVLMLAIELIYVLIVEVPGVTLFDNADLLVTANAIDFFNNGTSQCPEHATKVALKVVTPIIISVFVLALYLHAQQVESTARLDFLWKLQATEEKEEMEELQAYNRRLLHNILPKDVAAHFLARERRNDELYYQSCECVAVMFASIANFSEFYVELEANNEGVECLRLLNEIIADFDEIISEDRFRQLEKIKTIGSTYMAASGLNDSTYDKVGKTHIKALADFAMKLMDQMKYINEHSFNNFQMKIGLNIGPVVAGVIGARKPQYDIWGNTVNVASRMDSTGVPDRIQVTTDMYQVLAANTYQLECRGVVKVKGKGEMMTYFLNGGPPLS
Chain of Adenylate cyclase type 1 (Homo sapiens) (Q08828 whole entry, looked up): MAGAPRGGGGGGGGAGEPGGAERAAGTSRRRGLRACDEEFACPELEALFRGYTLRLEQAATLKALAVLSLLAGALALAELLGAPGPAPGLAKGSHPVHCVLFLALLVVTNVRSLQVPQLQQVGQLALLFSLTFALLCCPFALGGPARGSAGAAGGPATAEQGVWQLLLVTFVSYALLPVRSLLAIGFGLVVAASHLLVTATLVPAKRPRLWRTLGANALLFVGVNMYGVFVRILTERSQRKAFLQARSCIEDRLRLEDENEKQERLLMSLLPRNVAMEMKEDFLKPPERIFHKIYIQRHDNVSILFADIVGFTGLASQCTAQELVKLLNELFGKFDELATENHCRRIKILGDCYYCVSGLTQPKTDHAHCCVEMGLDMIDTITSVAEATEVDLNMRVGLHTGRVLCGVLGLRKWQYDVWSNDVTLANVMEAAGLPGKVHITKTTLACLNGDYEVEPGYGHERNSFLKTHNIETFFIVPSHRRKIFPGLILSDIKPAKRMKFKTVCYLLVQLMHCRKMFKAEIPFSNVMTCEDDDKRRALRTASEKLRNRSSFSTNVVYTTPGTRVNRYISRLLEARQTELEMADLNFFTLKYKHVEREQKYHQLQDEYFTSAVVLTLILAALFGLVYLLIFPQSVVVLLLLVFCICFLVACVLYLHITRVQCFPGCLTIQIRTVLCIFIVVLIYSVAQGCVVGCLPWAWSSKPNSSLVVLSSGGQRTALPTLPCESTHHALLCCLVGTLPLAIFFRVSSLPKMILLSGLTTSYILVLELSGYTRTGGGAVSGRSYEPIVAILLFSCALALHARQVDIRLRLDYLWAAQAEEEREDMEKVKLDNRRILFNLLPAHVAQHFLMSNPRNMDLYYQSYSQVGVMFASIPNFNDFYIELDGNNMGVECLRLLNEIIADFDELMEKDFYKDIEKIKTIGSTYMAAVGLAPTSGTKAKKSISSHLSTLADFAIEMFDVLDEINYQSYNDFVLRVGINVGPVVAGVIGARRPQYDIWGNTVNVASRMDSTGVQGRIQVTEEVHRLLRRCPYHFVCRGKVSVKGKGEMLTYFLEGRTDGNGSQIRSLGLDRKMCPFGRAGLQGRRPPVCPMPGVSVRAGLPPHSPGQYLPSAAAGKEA

Row | Compound | IC50 [1] [µM] | Activity [2] | Activity [3] | Activity [4] | Activity [5] | Activity [6] | IC50 [7] [µM] | Activity [8]
1 | BrC(c1cccc2ccccc12)c1cccc2ccccc12 | 200 | – | – | – | – | – | – | –
2 | O=C(O)c1cc2c(cc1S(=O)(=O)O)C1C(C3C2C2(Cl)C(Cl)=C(Cl)C3(Cl)C2(Cl)Cl)C2(Cl)C(Cl)=C(Cl)C1(Cl)C2(Cl)Cl (stereo unspecified) | – | Active | Active | Active | Active | Active | 11 | Active
3 | C[C@]12CC[C@H]3[C@@H](CCC4=CC(=O)CC[C@@]43C)[C@@H]1CC[C@@H]2C(=O)COS(=O)(=O)c1ccc(Br)cc1 | – | inactive | inactive | – | inactive | inactive | 1.1 | inactive
4 | C[C@]12CC[C@@H]3c4cc(O)c(O)cc4CC[C@H]3[C@@H]1CC[C@@H]2O | – | – | – | – | – | – | 3 | –
5 | C[C@H]1[C@H](C)CC[C@]2(C(=O)O)CC[C@]3(C)C(=CC[C@@H]4[C@@]5(C)C[C@@H](O)[C@H](O)[C@@](C)(CO)[C@@H]5[C@H](O)C[C@]43C)[C@H]12 [MADECASSIC ACID] | 100 | – | – | – | – | – | – | –
